# Experimental data from patent US20230310390A1, “INHIBITORS OF SHORT-CHAIN DEHYDROGENASE ACTIVITY FOR TREATING NEURODEGENERATION” (CASE WESTERN RESERVE UNIVERSITY, priority 2020, published 2023).
# Entries after “also recorded” stand apart in the source; their conditions may differ.
# What was measured:
# Assay type in all cases: in vivo
# [1] = tested on: eicosanoids; assay: Eicosanoid profiling by LC-MS/MS, left hippocampus of wild-type and 5×FAD mice; details: 5 mk/kg twice daily for 4 weeks
# Method: (§1) Eicosanoids were measured by methods of liquid chromatography with tandem mass spectrometry with the use of spiked in deuterated internal standards. Eicosanoids measured included: the 6-keto-PGF1 alpha (6-keto-PGF1a, a hydrolysis product of and proxy for prostacyclin), thromboxane B2 (TXB2, a metabolite/product of and proxy for thromboxane A2), PGD2, PGE2, 15-keto-PGE2 (produced by 15-PGDH degradation of PGE2), tetranor PGE1 (TN-E, a metabolic product produced by beta-oxidation of PGE2), PGJ2, PGF2 alpha (PGF2a), LTB4, 15-HETE, 12-HETE, 8-HETE, 5-HETE, 17-HDHA, 12,13-DiHOME, 14,15-DHET, 11,12-DHET.
# (§2) FIG. 2 illustrates graphs showing comparison of eicosanoid values in brain of 6 month old male mice that are either wild-type or that are the 5×FAD strain of mice that model Alzheimer's disease. Beginning at 5 months of age both genotypes of mice were injected twice daily with either 5 mk/kg (+)-SW033291 or with matched vehicle control as described in Zhang et al. Science. 2015; 348(6240):aaa2340. PMCID: PMC4481126. Treatment continued twice daily for 4 weeks. Mice were sacrificed at 3 hours following their final injection. After sacrifice the left hippocampus was dissected, flash frozen, and powdered, and eicosanoids were extracted in aqueous buffer for analysis. Protein concentration of the extracts were assayed, and eicosanoid values were recorded as ng eicosanoid per mg protein.
# [2] = tested on: 5×FAD mice; assay: Amyloid plaque accumulation (Congo Red staining); details: 5 mg/kg/day twice daily from 2 to 6 months
# Method: (§3) Two month old 5×FAD and wild type (WT) littermates were treated with 5 mg/kg/day twice daily (+)-SW033291 (or vehicle) every day from 2 to 6 months. At 5 months of age, mice were injected with a single dose of 150 mg/kg bromodeoxyuridine (BrdU) to label replicating cells. At the age of 6 months (28 days after BrdU) mice were transcardially perfused and brains were dissected for examination of fixed tissue. […] Individual mouse data points are shown on the graph. Data was analyzed using two-way repeated measures ANOVA; * p<0.05, ** p<0.01, ***p<0.001, ****p<0.0001. All data is mean±SEM.
# [3] = tested on: 5×FAD mice; assay: Blood-brain barrier integrity by transmission electron microscopy
# Method: BBB integrity was analyzed using transmission electron microscopy (TEM) in 6 month old 5×FAD mice. […] Mice were treated with 5 mg/kg/day (+)-SW033291 (or vehicle) every day from 2 to 6 months of age, and then sacrificed for TEM analysis. Individual mouse data points are shown on the graph. Data was analyzed using one-way ANOVA; * p<0.05, ** p<0.01, *** p<0.001. All data is mean±SEM.
# [4] = tested on: eicosanoids; assay: Eicosanoid profiling by LC-MS/MS, right brain hemisphere of wild-type and 5×FAD mice; details: 5 mk/kg twice daily for 4 weeks
# Method: as §1
# as §2, with “FIG. 3” for “FIG. 2”, “the right hemisphere of the brain” for “the left hippocampus”
# [5] = tested on: C57/B6 mice exposed to TBI; assay: Silver staining for axon degeneration after TBI; details: 3 weeks after TBI, 5 mg/kg twice daily started 24 hours after injury
# Method: 8 week old C57/B6 mice were exposed to sham-injury or TBI. Twice daily treatment with 5 mg/kg (+)-SW033291, 5 mg/kg (−)-SW033291, or vehicle was started 24 hours after injury and continued throughout the duration of the experiment. Animals were sacrificed by transcardial perfusion 3 weeks after TBI or sham-injury, and fixed brains were processed for silver staining. […] Individual mouse data points are shown on the graph. Data was analyzed using two-way repeated measures ANOVA; * p<0.05, ** p<0.01. All data is mean±SEM.
# [6] = tested on: 5×FAD and wild type (WT) mice; assay: BrdU staining, survival of newborn hippocampal neurons; details: 5 mg/kg/day twice daily from 2 to 6 months; for survival of newborn hippocampal neurons (BrdU): 28 days after BrdU
# Method: as §3
# [7] = 5×FAD mice, versus vehicle control treated 5×FAD mice
# [8] = 6 month old 5×FAD mice, 5 mg/kg/day from 2 to 6 months of age, TEM
# [9] = wild-type mice, compared to vehicle treated wild-type mice
smiles,measurement,setting,value
"CCCC[S+]([O-])c1sc2nc(-c3cccs3)cc(-c3ccccc3)c2c1N (single isomer, unassigned; (+)) [(+)-SW033291]",TXB2 in left hippocampus,[1]; [7],significant increase in TXB2
same,eicosanoid values in left hippocampus (trends),[1]; [7],"a trend to increased 6-keto-PGF1a, PGD2, PGE2, PGJ2, PGF2a"
same,eicosanoid values in left hippocampus (trends),"[1]; wild-type mice, versus vehicle treated mice","trends for increases in 6-keto-PGF1a, PGD2, PGE2, PGF2a, and 9,10-DiHOME"
same,amyloid plaque accumulation (Congo Red staining),[2],does not alter amyloid plaque accumulation; also recorded: does not affect accumulation of amyloid plaque
same,blood-brain barrier (BBB) protection,[3]; 5×FAD mice,protects the blood-brain barrier (BBB) in 5×FAD mice
same,disruption of astrocyte end feet that envelope the BBB,[3]; [8],prevented this disruption
same,enlargement of the perivascular space,[3]; [8],prevented this disruption
same,eicosanoid values in right hemisphere of the brain (trends),[4]; [7],"a trend to increased 15-keto-PGE2, TN-E, PGF2a, 12,13-DiHOME, and 11,12-DHET"
same,"6-keto-PGF1a, PGE2 in right hemisphere of the brain",[4]; [9],"significant increase in 6-keto-PGF1a, PGE2"
same,eicosanoid values in right hemisphere of the brain (trends),[4]; [9],"a trend to increased TXB2, PGD2, 15-keto-PGE2, TN-E, PGJ2, PGF2a, LTB4, 15-HETE, 12-HETE, 8-HETE, 17-HDHA, 9,10-DiHOME, 14,15-DHET"
same,silver staining (axon degeneration),[5]; 5 mg/kg,reduced silver staining equivalent to sham-injury-vehicle
same,silver staining (axon degeneration),"[5]; listed as (+)-SW033921, 5 mg/kg",protects wild type mice from axon degeneration after TBI
same,survival of young hippocampal neurons relative to WT-vehicle mice,[6]; 5×FAD mice,comparable extent as WT-vehicle mice
same,survival of newborn hippocampal neurons (BrdU),"[6]; 5×FAD mice, 5 mg/kg/day",augments the survival of newborn hippocampal neurons
same,survival of newborn hippocampal neurons (BrdU),[6]; WT mice,augments the survival of newborn hippocampal neurons
